Source: patent US8951972B2, “FGFR1 extracellular domain combination therapies for lung cancer” (Five Prime Therapeutics, Inc., priority 2010, dated 2015)

Assays:
[1] = tested on: H1703 Non-Small Cell Lung Cancer (NSCLC) Xenograft; experiment: H1703 non-small cell lung cancer (NSCLC) xenograft model, tumor volume; assay type: in vivo, SCID mice; conditions: day 38; FGFR1-ECD.339-Fc 15 mg/kg i.p. 2x/wk; docetaxel 25 mg/kg i.p. 1x/3 wk x 2 doses
Method: Human non-small cell lung cancer (NSCLC) cell line H1703 was used as the tumor model and was purchased from ATCC (Manassas, Va.; Cat. No. CRL-5889).
Docetaxel was purchased from Toronto Research Chemicals (North York, Ontario, Canada; cat. No. D494420) and formulated in H2O containing 5% Tween 80 and 5% glucose. Docetaxel was administered i.p. at 25 mg/kg (equivalent to about 75 mg/m^2 in a human) once every three weeks for two doses. In combination groups, FGFR1-ECD.339-Fc and docetaxel were either given concurrently or sequentially with FGFR1-ECD.339-Fc given one day before docetaxel or vice versa. Human albumin was purchased from Grifols USA (Los Angeles, Calif.; Cat. No. NDC 61953-0002-1), formulated in PBS at 3 mg/mL and was used as negative control at 300 μg/100 μL/mouse (15 mg/kg).
The tumor volume was measured by external caliper to determine the greatest longitudinal diameter (length) and the greatest transverse diameter (width). The tumor volume was then calculated using the following formula: Tumor volume (mm^3)=(length×width^2)/2

[2] = tested on: Colo205 Colon Cancer Xenograft; experiment: Colo205 colon cancer xenograft model, tumor volume; assay type: in vivo, SCID mice
Method: Cells were resuspended in a solution of 50%/v PBS and 50%/v Matrigel at a concentration of 25 million cells/ml. Resuspended cells were kept on ice until implantation. […] On day 0, 2.5 million cells/100 μl were implanted over the right flank of the each mouse using a 27G1/2 needle. One day after tumor implantation, the mice were randomized according to the body weight.
Leucovorin (LV) was also purchased from Sigma-Aldrich (Cat. No. F8259) and was formulated in 0.9% Sodium Chloride Injection USP at 2 mg/ml (for 10 mg/kg dosing), to 4 mg/ml (for 20 mg/kg dosing), and to 6 mg/ml (for 30 mg/kg dosing).
In the first experiment, FGFR1-ECD.339-Fc was combined with three different concentrations of 5-FU/leucovorin. In the second experiment, FGFR1-ECD.339-Fc was combined with either bevacizumab or 5-FU/leucovorin, or both. The double line separates the groups from the two experiments.
When the average tumor volume in a group was near 600 mm^3, the mice in that group were euthanized by isoflurane inhalation and cervical dislocation.
The order of effectiveness of the various treatments was evaluated two ways: 1) the average tumor volume in each group on a single time point (day); and 2) time for the average tumor volume in each group to reach 500 mm^3 (see the dotted line in FIG. 11E).
Leucovorin was also purchased from Sigma-Aldrich (Cat. No. F8259) and was formulated in 0.9% Sodium Chloride Injection USP at 2 mg/ml (for 10 mg/kg dosing).
5-FU and leucovorin were each administered i.p. at 10 mg/kg daily for five days. Oxaliplatin was administered i.p. at 5 mg/kg, 10 mg/kg, or 15 mg/kg in one dose on day 1.
Mice were euthanized on day 28 by isoflurane inhalation and cervical dislocation.

[3] = tested on: JIMT-1 Breast Cancer Xenograft; experiment: JIMT-1 breast cancer xenograft model, tumor volume; conditions: Day 21; FGFR1-ECD.339-Fc 15 mg/kg i.p. 2x/wk; doxorubicin 0.5 mg/kg 1x/wk; paclitaxel 30 mg/kg 2x/wk; each x 5 wks from day 7
Method: Six week old female SCID mice were purchased from Charles River Laboratories (Wilmington, Mass.) and were acclimated for 1 week before the start of the study. […] The cells were cultured for ten passages in DMEM+10% FBS, 1% L-glutamine, and 1% penicillin/streptomycin at 37° C. in a humidified atmosphere with 5% CO2. When the cultured cells reached 85-90% confluence, cells were harvested and resuspended in cold Ca^2+ and Mg^2+ free phosphate buffered saline (PBS) containing 50% Matrigel at 5×10^7 cells per milliliter. The cells were implanted subcutaneously over the right flank of the mice at 5×10^6 cells/100 μl/mouse. One day after tumor implantation, mice were randomized according to body weight at 10 mice per group.
FGFR1-ECD.339-Fc was formulated in 0.9% Saline for Injection USP at 3 mg/ml and administered intraperitoneally (i.p.) at 15 mg/kg (300 μg/100 μl/mouse) twice per week for five weeks beginning on day 7. […] Paclitaxel was administered at 30 mg/kg (60 μg/200 μL per mouse) twice per week for five weeks beginning on day 7.
The tumor volume and body weight of the mice were monitored twice a week throughout the study.
Mice were euthanized on day 42 by isoflurane inhalation and cervical dislocation.

[4] = day 24, FGFR1-ECD.339-Fc 15 mg/kg i.p. 3x/wk x 4 wks, bevacizumab 1 mg/kg i.p. 2x/wk x 4 wks, 5-Fu/LV 10 mg/kg each i.p. q.d. x 5 days

FGFR1-ECD.339-Fc: human FGFR1 extracellular domain ending at amino acid 339 fused to an Fc; SEQ ID NO: 6 (mature form)
Fractional tumor volume (FTV), each treatment alone [1]: 0.68
Mean Tumor volume mm^3(±SD) [1]: 557 (±151) mm^3
Tumor growth inhibition (%) [1]: 33%
Fractional tumor volume (FTV), each treatment alone ([2]; Day 16, FGFR1-ECD.339-Fc 15 mg/kg i.p. 3x/wk x 4 wks, 5-FU/LV 10 mg/kg each i.p. q.d. x 5 days): 0.76
Fractional tumor volume (FTV), each treatment alone ([2]; Day 16, FGFR1-ECD.339-Fc 15 mg/kg i.p. 3x/wk x 4 wks, 5-FU/LV 20 mg/kg each i.p. q.d. x 5 days): 0.76
Fractional tumor volume (FTV), each treatment alone ([2]; Day 16, FGFR1-ECD.339-Fc 15 mg/kg i.p. 3x/wk x 4 wks, 5-FU/LV 30 mg/kg each i.p. q.d. x 5 days): 0.76
Fractional tumor volume (FTV), each treatment alone ([2]; Day 24, FGFR1-ECD.339-Fc 15 mg/kg i.p. 3x/wk x 4 wks, bevacizumab 1 mg/kg i.p. 2x/wk x 4 wks, 5-Fu/LV 10 mg/kg each q.d. x 5 days): 0.73
Order of antitumor effect of the treatment groups ([2]; by average tumor volume on a single day and by time for average tumor volume to reach 500 mm^3 (FIG. 11E), value gives the next-ranked group): >vehicle
Fractional tumor volume (FTV), each treatment alone ([2]; day 17, FGFR1-ECD.339-Fc 15 mg/kg i.p. 2x/wk x 4 wks, 5-FU and leucovorin 10 mg/kg each i.p. daily x 5 days, oxaliplatin 5 mg/kg i.p. one dose day 1): 0.77
Fractional tumor volume (FTV), each treatment alone ([2]; day 17, FGFR1-ECD.339-Fc 15 mg/kg i.p. 2x/wk x 4 wks, 5-FU and leucovorin 10 mg/kg each i.p. daily x 5 days, oxaliplatin 10 mg/kg i.p. one dose day 1): 0.77
Mean Tumor volume mm^3(±SD) [2, 4]: 509 (±144) mm^3
Tumor growth inhibition (%) [2, 4]: 26%
Fractional tumor volume (FTV), each treatment alone [3]: 0.93
